The first experiment deals with 843126-344-R-J1-PDC complex spheroid viability. The experiment in a line: Anticancer human tumor 843126-344-R-J1-PDC patient-derived melanoma cell line growth inhibition [POLQ]. The note with it: second compound 0.316 µM; first compound 1 µM; stronger effect = lower value. Put shortly:
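Three-cell-type spheroids modelling solid tumor plus stroma served as the readout system; POL inhibitors were tested individually and in combination, concentration ranges set by clinical Cmax where known.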
Broadly, the viability, T/C is the result in the treated group divided by that in the control group, in per cent. `C#Cc1c(F)ccc2cc(O)cc(-c3ncc4c(N5CC6CCC(C5)N6)nc(OCC56CCCN5CC(F)C6)nc4c3F)c12` (stereo unspecified) + Nc1ccc(C#CCN(C(=O)Cc2ncc(C(F)(F)F)cc2C(F)(F)F)c2ccc(F)cc2)nn1: the viability, T/C was 110%.

As to `CC1COCCN1c1cc(C2(O)CC3CCC(C2)O3)c2cnn(-c3ccn[nH]3)c2n1` (stereo unspecified) + Nc1ccc(C#CCN(C(=O)Cc2ncc(C(F)(F)F)cc2C(F)(F)F)c2ccc(F)cc2)nn1, the viability, T/C was 36.5%.

On to `CCc1cc2c(N3CCc4c(cc(Cn5ccnc5)cc4-c4cn(C)nc4C(F)(F)F)C3=O)cc(C)nc2c(OC)n1` + Nc1ccc(C#CCN(C(=O)Cc2ncc(C(F)(F)F)cc2C(F)(F)F)c2ccc(F)cc2)nn1, for which the viability, T/C was 84.6%.

For the compound `COc1cc2cc(C(=O)CCC(=O)O)sc2cc1OC` + Nc1ccc(C#CCN(C(=O)Cc2ncc(C(F)(F)F)cc2C(F)(F)F)c2ccc(F)cc2)nn1, the viability, T/C is 96.7%.

Turning to `O=C(Nc1ccc(O)c(NS(=O)(=O)c2ccc(F)cc2)c1)c1ccc(-c2ccccc2)cc1` + Nc1ccc(C#CCN(C(=O)Cc2ncc(C(F)(F)F)cc2C(F)(F)F)c2ccc(F)cc2)nn1, the viability, T/C is 84.3%.

Still in this experiment, the particulars now being: second compound 0.316 µM; first compound 3.16 µM; stronger effect = lower value.
Take `C#Cc1c(F)ccc2cc(O)cc(-c3ncc4c(N5CC6CCC(C5)N6)nc(OCC56CCCN5CC(F)C6)nc4c3F)c12` (stereo unspecified) + Nc1ccc(C#CCN(C(=O)Cc2ncc(C(F)(F)F)cc2C(F)(F)F)c2ccc(F)cc2)nn1: the viability, T/C was 95.1%.

For the compound `CC1COCCN1c1cc(C2(O)CC3CCC(C2)O3)c2cnn(-c3ccn[nH]3)c2n1` (stereo unspecified) + Nc1ccc(C#CCN(C(=O)Cc2ncc(C(F)(F)F)cc2C(F)(F)F)c2ccc(F)cc2)nn1, the viability, T/C was 28%.

As to `CCc1cc2c(N3CCc4c(cc(Cn5ccnc5)cc4-c4cn(C)nc4C(F)(F)F)C3=O)cc(C)nc2c(OC)n1` + Nc1ccc(C#CCN(C(=O)Cc2ncc(C(F)(F)F)cc2C(F)(F)F)c2ccc(F)cc2)nn1, the viability, T/C was 76.8%.

On to `COc1cc2cc(C(=O)CCC(=O)O)sc2cc1OC` + Nc1ccc(C#CCN(C(=O)Cc2ncc(C(F)(F)F)cc2C(F)(F)F)c2ccc(F)cc2)nn1, for which the viability, T/C was 108%.

On to `O=C(Nc1ccc(O)c(NS(=O)(=O)c2ccc(F)cc2)c1)c1ccc(-c2ccccc2)cc1` + Nc1ccc(C#CCN(C(=O)Cc2ncc(C(F)(F)F)cc2C(F)(F)F)c2ccc(F)cc2)nn1, for which the viability, T/C was 96.3%.

The same experiment, now with this note: second compound 0.316 µM; first compound 10 µM; stronger effect = lower value.
In the case of `C#Cc1c(F)ccc2cc(O)cc(-c3ncc4c(N5CC6CCC(C5)N6)nc(OCC56CCCN5CC(F)C6)nc4c3F)c12` (stereo unspecified) + Nc1ccc(C#CCN(C(=O)Cc2ncc(C(F)(F)F)cc2C(F)(F)F)c2ccc(F)cc2)nn1, the viability, T/C is 90.8%.

With `CC1COCCN1c1cc(C2(O)CC3CCC(C2)O3)c2cnn(-c3ccn[nH]3)c2n1` (stereo unspecified) + Nc1ccc(C#CCN(C(=O)Cc2ncc(C(F)(F)F)cc2C(F)(F)F)c2ccc(F)cc2)nn1, the viability, T/C is 17.9%.

Consider `CCc1cc2c(N3CCc4c(cc(Cn5ccnc5)cc4-c4cn(C)nc4C(F)(F)F)C3=O)cc(C)nc2c(OC)n1` + Nc1ccc(C#CCN(C(=O)Cc2ncc(C(F)(F)F)cc2C(F)(F)F)c2ccc(F)cc2)nn1, for which the viability, T/C was 66.7%.

On to `COc1cc2cc(C(=O)CCC(=O)O)sc2cc1OC` + Nc1ccc(C#CCN(C(=O)Cc2ncc(C(F)(F)F)cc2C(F)(F)F)c2ccc(F)cc2)nn1, for which the viability, T/C is 82.3%.

Regarding `O=C(Nc1ccc(O)c(NS(=O)(=O)c2ccc(F)cc2)c1)c1ccc(-c2ccccc2)cc1` + Nc1ccc(C#CCN(C(=O)Cc2ncc(C(F)(F)F)cc2C(F)(F)F)c2ccc(F)cc2)nn1, the viability, T/C is 61.5%.

The same experiment, now with this note: second compound 1 µM; first compound 0.0316 µM; stronger effect = lower value.
For the compound `C#Cc1c(F)ccc2cc(O)cc(-c3ncc4c(N5CC6CCC(C5)N6)nc(OCC56CCCN5CC(F)C6)nc4c3F)c12` (stereo unspecified) + Nc1ccc(C#CCN(C(=O)Cc2ncc(C(F)(F)F)cc2C(F)(F)F)c2ccc(F)cc2)nn1, the viability, T/C is 107%.

On to `CC1COCCN1c1cc(C2(O)CC3CCC(C2)O3)c2cnn(-c3ccn[nH]3)c2n1` (stereo unspecified) + Nc1ccc(C#CCN(C(=O)Cc2ncc(C(F)(F)F)cc2C(F)(F)F)c2ccc(F)cc2)nn1, for which the viability, T/C is 85.9%.

Turning to `CCc1cc2c(N3CCc4c(cc(Cn5ccnc5)cc4-c4cn(C)nc4C(F)(F)F)C3=O)cc(C)nc2c(OC)n1` + Nc1ccc(C#CCN(C(=O)Cc2ncc(C(F)(F)F)cc2C(F)(F)F)c2ccc(F)cc2)nn1, the viability, T/C was 104%.

Take `COc1cc2cc(C(=O)CCC(=O)O)sc2cc1OC` + Nc1ccc(C#CCN(C(=O)Cc2ncc(C(F)(F)F)cc2C(F)(F)F)c2ccc(F)cc2)nn1: the viability, T/C was 96.7%.

Regarding `O=C(Nc1ccc(O)c(NS(=O)(=O)c2ccc(F)cc2)c1)c1ccc(-c2ccccc2)cc1` + Nc1ccc(C#CCN(C(=O)Cc2ncc(C(F)(F)F)cc2C(F)(F)F)c2ccc(F)cc2)nn1, the viability, T/C was 98.3%.

Staying with this experiment, now noted: second compound 1 µM; first compound 0.1 µM; stronger effect = lower value.
With `C#Cc1c(F)ccc2cc(O)cc(-c3ncc4c(N5CC6CCC(C5)N6)nc(OCC56CCCN5CC(F)C6)nc4c3F)c12` (stereo unspecified) + Nc1ccc(C#CCN(C(=O)Cc2ncc(C(F)(F)F)cc2C(F)(F)F)c2ccc(F)cc2)nn1, the viability, T/C is 91.2%.

Take `CC1COCCN1c1cc(C2(O)CC3CCC(C2)O3)c2cnn(-c3ccn[nH]3)c2n1` (stereo unspecified) + Nc1ccc(C#CCN(C(=O)Cc2ncc(C(F)(F)F)cc2C(F)(F)F)c2ccc(F)cc2)nn1: the viability, T/C is 64.7%.

For `CCc1cc2c(N3CCc4c(cc(Cn5ccnc5)cc4-c4cn(C)nc4C(F)(F)F)C3=O)cc(C)nc2c(OC)n1` + Nc1ccc(C#CCN(C(=O)Cc2ncc(C(F)(F)F)cc2C(F)(F)F)c2ccc(F)cc2)nn1, the viability, T/C was 94%.

On to `COc1cc2cc(C(=O)CCC(=O)O)sc2cc1OC` + Nc1ccc(C#CCN(C(=O)Cc2ncc(C(F)(F)F)cc2C(F)(F)F)c2ccc(F)cc2)nn1, for which the viability, T/C was 77.7%.

For `O=C(Nc1ccc(O)c(NS(=O)(=O)c2ccc(F)cc2)c1)c1ccc(-c2ccccc2)cc1` + Nc1ccc(C#CCN(C(=O)Cc2ncc(C(F)(F)F)cc2C(F)(F)F)c2ccc(F)cc2)nn1, the viability, T/C was 97.1%.

Staying with this experiment, now noted: second compound 1 µM; first compound 0.316 µM; stronger effect = lower value.
For the compound `C#Cc1c(F)ccc2cc(O)cc(-c3ncc4c(N5CC6CCC(C5)N6)nc(OCC56CCCN5CC(F)C6)nc4c3F)c12` (stereo unspecified) + Nc1ccc(C#CCN(C(=O)Cc2ncc(C(F)(F)F)cc2C(F)(F)F)c2ccc(F)cc2)nn1, the viability, T/C was 91.2%.

Values taken from PubChem BioAssay AID1963837 (Molecular Pharmacology Branch, DTP, NCI, 2024).
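Also: spheroids exposed to drugs for seven days before readout.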
